Measurements from patent US20160083391A1, “TRICYCLIC PIPERAZINE DERIVATIVE” (Sunovion Pharmaceuticals Inc., priority 2014, published 2016).

Tested on: PDE1
Assay: In vitro HTRF PDE1 inhibition assay
Format: biochemical
Conditions: HTRF cGMP assay, 100 nM cyclic GMP, PDE (1A3, 1B or 1C) with calmodulin, 45 minutes at 37° C.; isoform of the tabulated values not stated
How it was run: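 HTRF cGMP competition assay: PDE1A3, 1B or 1C with calmodulin acting on 100 nM cGMP in 1% DMSO, pH 7.4 buffer with Ca2+ and Mg2+, 45 min at 37 °C. Remaining cGMP detected with d2-cGMP and anti-cGMP cryptate (665/615 nm); IC50 reported as banded categories.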

| Structure (SMILES) | IC50 [µM] |
| --- | --- |
| CC(C)c1nn(C)c2c(=O)n3c(nc12)CN(C)CC3 [Compound I-40, 3-Isopropyl-1,6-dimethyl-5,6,7,8-tetrahydropyrazino[1,2-a]pyrazolo[4,3-d]pyrimidin-10(1H)-one] | > 10 |
| CC(C)c1n[nH]c2c(=O)n3c(nc12)CN(Cc1ccccc1)CC3 [Compound I-43, 6-Benzyl-3-isopropyl-5,6,7,8-tetrahydropyrazino[1,2-a]pyrazolo[4,3-d]pyrimidin-10(1H)-one] | > 10 |
| CN1CCn2c(nc3[nH]nc(Nc4ccccc4)c3c2=O)C1 [Compound I-49, 8-Methyl-3-(phenylamino)-6,7,8,9-tetrahydropyrazino[1,2-a]pyrazolo[3,4-d]pyrimidin-4(1H)-one] | > 10 |
| O=c1c2c(Nc3ccccc3)n[nH]c2nc2n1CCN(Cc1ccccc1)C2 [Compound I-50] | > 10 |
| CC(C)n1ncc2c(=O)n3c(nc21)CN(c1ccccc1)CC3 [Compound I-55, 1-Isopropyl-8-phenyl-6,7,8,9-tetrahydropyrazino[1,2-a]pyrazolo[3,4-d]pyrimidin-4(1H)-one] | 1 to 10 |
| CC(C)CN1CCn2c(nc3c(cnn3C(C)C)c2=O)C1 [Compound I-57, 8-Isobutyl-1-isopropyl-6,7,8,9-tetrahydropyrazino[1,2-a]pyrazolo[3,4-d]pyrimidin-4(1H)-one] | > 10 |
| O=c1c2c(Nc3ccccc3)n(Cc3ccccc3)nc2nc2n1CCNC2 [Compound I-59, 2-Benzyl-3-(phenylamino)-6,7,8,9-tetrahydropyrazino[1,2-a]pyrazolo[3,4-d]pyrimidin-4(2H)-one] | > 10 |
| CC(C)n1ncc2c(=O)n3c(nc21)CN(Cc1ccccc1-c1ccccc1)CC3 [Compound I-64, 8-([1,1′-Biphenyl]-2-ylmethyl)-1-isopropyl-6,7,8,9-tetrahydropyrazino[1,2-a]pyrazolo[3,4-d]pyrimidin-4(1H)-one] | 1 to 10 |

Now from value to compound:

| IC50 [µM] | Structure (SMILES) |
| --- | --- |
| > 10 | Cn1ncc2c(=O)n3c(nc21)CN(Cc1ccccc1)CC3 [Compound I-28, 8-Benzyl-1-methyl-6,7,8,9-tetrahydropyrazino[1,2-a]pyrazolo[3,4-d]pyrimidin-4(1H)-one] |
| 1 to 10 | CC(C)n1ncc2c(=O)n3c(nc21)CN(Cc1ccccc1)CC3 [Compound I-29, 8-Benzyl-1-isopropyl-6,7,8,9-tetrahydropyrazino[1,2-a]pyrazolo[3,4-d]pyrimidin-4(1H)-one] |
| > 10 | O=c1c2cnn(-c3ccccc3)c2nc2n1CCN(Cc1ccccc1)C2 [Compound I-30, 8-Benzyl-1-phenyl-6,7,8,9-tetrahydropyrazino[1,2-a]pyrazolo[3,4-d]pyrimidin-4(1H)-one] |
| > 10 | CC(C)c1nn(C)c2c(=O)n3c(nc12)CN(Cc1ccccc1)CC3 [Compound I-46, 6-Benzyl-3-isopropyl-1-methyl-5,6,7,8-tetrahydropyrazino[1,2-a]pyrazolo[4,3-d]pyrimidin-10(1H)-one] |
| 1 to 10 | CC(C)Cn1ncc2c(=O)n3c(nc21)CN(Cc1ccccc1)CC3 [Compound I-51, 8-Benzyl-1-isobutyl-6,7,8,9-tetrahydropyrazino[1,2-a]pyrazolo[3,4-d]pyrimidin-4(1H)-one] |
| 1 to 10 | O=c1c2cnn(C3CCCC3)c2nc2n1CCN(Cc1ccccc1)C2 [Compound I-52, 8-Benzyl-1-cyclopentyl-6,7,8,9-tetrahydropyrazino[1,2-a]pyrazolo[3,4-d]pyrimidin-4(1H)-one] |
| > 10 | O=c1c2cnn(C3CC3)c2nc2n1CCN(Cc1ccccc1)C2 [Compound I-53, 8-Benzyl-1-cyclopropyl-6,7,8,9-tetrahydropyrazino[1,2-a]pyrazolo[3,4-d]pyrimidin-4(1H)-one] |
| 1 to 10 | CCCn1ncc2c(=O)n3c(nc21)CN(Cc1ccccc1)CC3 [Compound I-54, 8-Benzyl-1-propyl-6,7,8,9-tetrahydropyrazino[1,2-a]pyrazolo[3,4-d]pyrimidin-4(1H)-one] |
